{"source": "patent US20130122113A1", "about": "“ANTITUMORAL COMBINATION COMPRISING OMBRABULIN, A TAXANE DERIVATIVE AND A PLATINUM DERIVATIVE” (SANOFI, priority 2010, published 2013)", "key": {"clinical": {"experiment": "clinical", "protocol": "Blood samples for pharmacokinetic analysis were obtained from all patients on Day 1, 2 and 3 at Cycle 1.\nA series of 2-mL blood samples were collected in heparinized (lithium heparinate) tubes as follows: • immediately prior to the end of infusion; • at 5, 10, 25, 45 and 60 minutes post infusion; • at 2, 4, 6, 8, 10 and 24 hours post infusion (i.e a total of 24 mL of blood)."}, "[1]": {"experiment": "Phase I dose escalation study of ombrabulin with platinum salts and taxanes every 3 weeks: DLT, MAD, RD, TEAE", "format": "in vivo, patients", "protocol": "Dose Limiting Toxicity (DLT) at cycle 1.\nTwo groups of patients will be treated: one with docetaxel-cisplatin doublet (group 1) and the second with paclitaxel-carboplatin doublet (group 2), both in combination with ombrabulin.\nThe combination will be started with the following schedule (schedule A) for group 1:\nDay 1: ombrabulin as a 30 minutes i.v. infusion immediately followed by 120 minutes i.v. infusion of cisplatin, and\nDay 2: docetaxel administered as a 60 minutes i.v. infusion 24 hours apart ombrabulin infusion end and for the first 4 dose levels (I, II, III, IV).\nCohorts of 3 or 6 patients will receive escalating doses of ombrabulin (15.5, 20 and 25 mg/m^2) with a fixed dose of cisplatin at 75 mg/m^2 on Day 1, followed by docetaxel on Day 2, given either at 60 mg/m^2 for the ombrabulin doses of 15.5 and 20 mg/m^2 or at 75 mg/m^2 for the ombrabulin doses of 20 and 25 mg/m^2.\nTaking into consideration the recommended dose of the combination ombrabulin and cisplatin administered the same day (25 mg/m^2 and 75 mg/m^2 respectively) every 3 weeks, after dose level IV, even if MAD not reached at this dose level, dose escalation of ombrabulin will be stopped and the combination will be administered with the following schedule (schedule B) in the 2 groups:\nDay 1: ombrabulin as a 30 minutes i.v. infusion, and\nGroup 1: docetaxel administered as a 60 minutes i.v. infusion followed by cisplatin as a 120 minutes i.v. infusion, 24 hours apart ombrabulin infusion end.\nGroup 2: paclitaxel administered as a 180 minutes i.v. infusion followed by carboplatin as a 30 minutes i.v. infusion, 24 hours apart ombrabulin infusion end.\nCohorts of 3 or 6 patients will be screened and treated at each dose level. When the first three patients of a cohort have completed the first cycle, i.e. should have received at least one treatment course and should have been observed for acute toxicity for at least a 3-week follow-up period (or shorter period provided that a DLT has been observed), dose escalation strategy will be as follows: […]"}, "[2]": {"settings": "cited from earlier work"}, "[3]": {"settings": "ombrabulin 15.5 mg/m^2, 3 patients, cycle 1, mean (CV)"}, "[4]": {"settings": "ombrabulin 20 mg/m^2, 26 patients, cycle 1, mean (CV)"}, "[5]": {"settings": "ombrabulin 25 mg/m^2, 12 patients, cycle 1, mean (CV)"}, "[6]": {"settings": "ombrabulin 30 mg/m^2, 6 patients, cycle 1, mean (CV)"}, "[7]": {"settings": "ombrabulin 35 mg/m^2, 5 patients, cycle 1, mean (CV)"}, "[8]": {"settings": "ombrabulin, Overall (15.5-35 mg/m^2), 52 patients, cycle 1, mean (CV)"}, "[9]": {"settings": "ombrabulin, Overall (15.5-35 mg/m^2), 52 patients, cycle 1, mean (CV), listed as Ombrabulin"}}}
{"smiles": "COc1ccc(/C=C\\c2cc(OC)c(OC)c(OC)c2)cc1N", "note": "[ombrabulin metabolite, (Z)-1-(3-amino-4-methoxyphenyl)-2-(3,4,5-trimethoxyphenyl)ethene]", "values": [{"measurement": "Metabolite exposure relative to ombrabulin", "setting": "clinical; human, in vivo", "value": "about 2 fold"}]}
{"smiles": "COc1ccc(/C=C\\c2cc(OC)c(OC)c(OC)c2)cc1NC(=O)[C@@H](N)CO", "note": "[ombrabulin, (Z)-N-[2-methoxy-5-[2-(3,4,5-trimethoxyphenyl)vinyl]phenyl]-L-serinamide]", "values": [{"measurement": "AUC", "setting": "clinical; human, in vivo, 15.5 mg/m2", "value": 276, "unit": "ng·h/mL"}, {"measurement": "AUC(0-t)", "setting": "clinical; human, in vivo, 15.5 mg/m2", "value": 274, "unit": "ng·h/mL"}, {"measurement": "Cmax", "setting": "clinical; human, in vivo, 15.5 mg/m2", "value": 712, "unit": "ng/mL"}, {"measurement": "Tmax", "setting": "clinical; human, in vivo, 15.5 mg/m2", "value": 28.8, "unit": "min"}, {"measurement": "AUC", "setting": "clinical; human, in vivo, 20 mg/m2", "value": 353, "unit": "ng·h/mL"}, {"measurement": "AUC(0-t)", "setting": "clinical; human, in vivo, 20 mg/m2", "value": 351, "unit": "ng·h/mL"}, {"measurement": "Cmax", "setting": "clinical; human, in vivo, 20 mg/m2", "value": 861, "unit": "ng/mL"}, {"measurement": "Tmax", "setting": "clinical; human, in vivo, 20 mg/m2", "value": 28.8, "unit": "min"}, {"measurement": "AUC", "setting": "clinical; human, in vivo, 25 mg/m2", "value": 383, "unit": "ng·h/mL"}, {"measurement": "AUC(0-t)", "setting": "clinical; human, in vivo, 25 mg/m2", "value": 381, "unit": "ng·h/mL"}, {"measurement": "Cmax", "setting": "clinical; human, in vivo, 25 mg/m2", "value": 973, "unit": "ng/mL"}, {"measurement": "Tmax", "setting": "clinical; human, in vivo, 25 mg/m2", "value": 29.4, "unit": "min"}, {"measurement": "AUC", "setting": "clinical; human, in vivo, 30 mg/m2", "value": 510, "unit": "ng·h/mL"}, {"measurement": "AUC(0-t)", "setting": "clinical; human, in vivo, 30 mg/m2", "value": 508, "unit": "ng·h/mL"}, {"measurement": "Cmax", "setting": "clinical; human, in vivo, 30 mg/m2", "value": 1170, "unit": "ng/mL"}, {"measurement": "Tmax", "setting": "clinical; human, in vivo, 30 mg/m2", "value": 32.4, "unit": "min"}, {"measurement": "AUC", "setting": "clinical; human, in vivo, 35 mg/m2", "value": 493, "unit": "ng·h/mL"}, {"measurement": "AUC(0-t)", "setting": "clinical; human, in vivo, 35 mg/m2", "value": 491, "unit": "ng·h/mL"}, {"measurement": "Cmax", "setting": "clinical; human, in vivo, 35 mg/m2", "value": 1270, "unit": "ng/mL"}, {"measurement": "Tmax", "setting": "clinical; human, in vivo, 35 mg/m2", "value": 30, "unit": "min"}, {"measurement": "half-life", "setting": "clinical; human, in vivo, t1/2Z (terminal elimination half-life), ombrabulin, Overall (15.5-35 mg/m^2), 52 patients, cycle 1, mean (CV)", "value": 17, "unit": "min"}, {"measurement": "conversion to its active metabolite", "setting": "clinical; in patients after i.v. infusion", "value": "rapidly converted"}, {"measurement": "Vss", "setting": "clinical; [3]", "value": "18.2 (32) L/m^2"}, {"measurement": "t1/2Z", "setting": "clinical; [3]", "value": "20.9 (76) min"}, {"measurement": "CL", "setting": "clinical; [4]", "value": "64.6 (42) L/h/m^2"}, {"measurement": "Vss", "setting": "clinical; [4]", "value": "22.0 (57) L/m^2"}, {"measurement": "t1/2Z", "setting": "clinical; [4]", "value": "17.7 (50) min"}, {"measurement": "CL", "setting": "clinical; [5]", "value": "80.1 (49) L/h/m^2"}, {"measurement": "Vss", "setting": "clinical; [5]", "value": "27.2 (76) L/m^2"}, {"measurement": "t1/2Z", "setting": "clinical; [5]", "value": "15.3 (37) min"}, {"measurement": "CL", "setting": "clinical; [6]", "value": "63.4 (33) L/h/m^2"}, {"measurement": "Vss", "setting": "clinical; [6]", "value": "24.3 (37) L/m^2"}, {"measurement": "t1/2Z", "setting": "clinical; [6]", "value": "18.5 (65) min"}, {"measurement": "CL", "setting": "clinical; [7]", "value": "95.7 (63) L/h/m^2"}, {"measurement": "Vss", "setting": "clinical; [7]", "value": "32.8 (78) L/m^2"}, {"measurement": "t1/2Z", "setting": "clinical; [7]", "value": "14.3 (28) min"}, {"measurement": "CL", "setting": "clinical; [8]", "value": "72.9 (23) L/h/m^2"}, {"measurement": "Vss", "setting": "clinical; [8]", "value": "25.0 (33) L/m^2"}, {"measurement": "t1/2Z (terminal elimination half-life)", "setting": "clinical; [8]", "value": "17.3 (15) min"}, {"measurement": "CL", "setting": "clinical; [9]", "value": 72.9, "unit": "L/h/m^2"}, {"measurement": "Vss", "setting": "clinical; [9]", "value": 25.0, "unit": "L/m^2"}, {"measurement": "maximum administered dose", "setting": "[1]; Cohort II: Ob d1, C75/D75 d2, 19 pts", "value": 35, "unit": "mg/m^2"}, {"measurement": "maximum administered dose", "setting": "[1]; Cohort III: Ob d1, CbAUC5/P175 d2, 18 pts", "value": 35, "unit": "mg/m^2"}, {"measurement": "maximum administered dose", "setting": "[1]; Cohort IV: Ob d1, CbAUC6/P200 d2, 19 pts", "value": 35, "unit": "mg/m^2"}, {"measurement": "recommended dose in monotherapy", "setting": "[2]; ombrabulin monotherapy", "value": 50, "unit": "mg/m^2"}, {"measurement": "recommended dose of ombrabulin in combination with cisplatin", "setting": "[2]; with cisplatin 75 mg/m^2 administered the same day, every 3 weeks", "value": 25, "unit": "mg/m^2"}, {"measurement": "recommended dose of ombrabulin in bi-therapy with docetaxel", "setting": "[2]; with docetaxel 75 mg/m^2, on-going phase I trial", "value": 35, "unit": "mg/m^2"}]}
